Experimental data reported in the NIST ThermoML archive (doi:10.1016/j.fluid.2004.11.021).

Experiment: xn = mol fraction of the nth substance listed
Conditions: Fluid (supercritical or subcritical phases)

CF [fluoromethane] + [N-]=[N+]=O
Other PVT measurement
Conditions | molar volume [m3/mol]
263.02 K, 2088.5 kPa, x2 = 0.6161 | 0.000766
263.03 K, 1936.1 kPa, x2 = 0.508 | 0.000863
267.98 K, 1999.2 kPa, x2 = 0.508 | 0.000863
268 K, 2048.2 kPa, x2 = 0.3047 | 0.00074
268 K, 2223.9 kPa, x2 = 0.6161 | 0.000766
272.89 K, 2060.3 kPa, x2 = 0.508 | 0.000863
272.98 K, 2295.8 kPa, x2 = 0.6161 | 0.000766
273.01 K, 2223.5 kPa, x2 = 0.3047 | 0.000741
273.05 K, 1878.4 kPa, x2 = 0.1467 | 0.000909
277.86 K, 2121 kPa, x2 = 0.508 | 0.000863
282.81 K, 2371.8 kPa, x2 = 0.3047 | 0.000741
282.83 K, 1994.7 kPa, x2 = 0.1467 | 0.000909
283.04 K, 2438 kPa, x2 = 0.6161 | 0.000767
287.8 K, 4359.8 kPa, x2 = 0.8263 | 0.000305
288.08 K, 2242.8 kPa, x2 = 0.508 | 0.000864
292.79 K, 2109.4 kPa, x2 = 0.1467 | 0.00091
292.93 K, 4761.6 kPa, x2 = 0.8263 | 0.000305
292.96 K, 2512.2 kPa, x2 = 0.3047 | 0.000741
293.07 K, 2574.6 kPa, x2 = 0.6161 | 0.000767
298.08 K, 2168.4 kPa, x2 = 0.1467 | 0.00091
298.09 K, 2358.5 kPa, x2 = 0.508 | 0.000864
298.11 K, 2642.6 kPa, x2 = 0.6161 | 0.000767
298.17 K, 2591.9 kPa, x2 = 0.3047 | 0.000741
302.97 K, 5179 kPa, x2 = 0.8263 | 0.000305
307.96 K, 5380.9 kPa, x2 = 0.8263 | 0.000305
308.05 K, 2279.3 kPa, x2 = 0.1467 | 0.00091
308.06 K, 2474.5 kPa, x2 = 0.508 | 0.000865
308.13 K, 2731.2 kPa, x2 = 0.3047 | 0.000742
308.15 K, 2774.9 kPa, x2 = 0.6161 | 0.000768
312.91 K, 5577.9 kPa, x2 = 0.8263 | 0.000305
318.05 K, 2388.7 kPa, x2 = 0.1467 | 0.000911
318.11 K, 2867.7 kPa, x2 = 0.3047 | 0.000742
318.12 K, 2588.2 kPa, x2 = 0.508 | 0.000865
318.12 K, 2904.6 kPa, x2 = 0.6161 | 0.000768
328.03 K, 2496.3 kPa, x2 = 0.1467 | 0.000911
328.09 K, 3033 kPa, x2 = 0.6161 | 0.000768
328.1 K, 3002.9 kPa, x2 = 0.3047 | 0.000742
328.11 K, 2699.9 kPa, x2 = 0.508 | 0.000865
338.08 K, 2810.2 kPa, x2 = 0.508 | 0.000866
338.08 K, 3160 kPa, x2 = 0.6161 | 0.000769
338.09 K, 2603.1 kPa, x2 = 0.1467 | 0.000912
338.09 K, 3135.8 kPa, x2 = 0.3047 | 0.000743
347.94 K, 2707 kPa, x2 = 0.1467 | 0.000912
348.05 K, 3285.8 kPa, x2 = 0.6161 | 0.000769
348.06 K, 2919.8 kPa, x2 = 0.508 | 0.000866
348.06 K, 3267 kPa, x2 = 0.3047 | 0.000743
354.94 K, 2779.9 kPa, x2 = 0.1467 | 0.000912
358.03 K, 3396.5 kPa, x2 = 0.3047 | 0.000743
358.03 K, 3410.5 kPa, x2 = 0.6161 | 0.000769
358.05 K, 3028.8 kPa, x2 = 0.508 | 0.000867

[N-]=[N+]=O [nitrous oxide] + FC(F)F
isochoric method
Conditions | molar volume [m3/mol]
253.03 K, 1464.8 kPa, x1 = 0.1116 | 0.001035
253.09 K, 1627.2 kPa, x1 = 0.4162 | 0.000978
258 K, 1541.9 kPa, x1 = 0.1116 | 0.001035
258.06 K, 1905.9 kPa, x1 = 0.563 | 0.000867
258.08 K, 1718.9 kPa, x1 = 0.4162 | 0.000978
258.09 K, 1832.3 kPa, x1 = 0.2888 | 0.000828
262.96 K, 1968.2 kPa, x1 = 0.563 | 0.000867
263.06 K, 1593.9 kPa, x1 = 0.1116 | 0.001035
263.06 K, 1774.4 kPa, x1 = 0.4162 | 0.000979
263.08 K, 1926.6 kPa, x1 = 0.2888 | 0.000829
267.94 K, 2030.3 kPa, x1 = 0.563 | 0.000867
268 K, 1644.1 kPa, x1 = 0.1116 | 0.001035
268.04 K, 1829.1 kPa, x1 = 0.4162 | 0.000979
268.04 K, 1991.7 kPa, x1 = 0.2888 | 0.000829
268.04 K, 2663.9 kPa, x1 = 0.6362 | 0.000591
272.9 K, 1693.3 kPa, x1 = 0.1116 | 0.001035
272.93 K, 2055.2 kPa, x1 = 0.2888 | 0.000829
272.95 K, 2091.7 kPa, x1 = 0.563 | 0.000867
273.02 K, 2765.9 kPa, x1 = 0.6362 | 0.000591
273.03 K, 1883 kPa, x1 = 0.4162 | 0.000979
282.83 K, 2180.4 kPa, x1 = 0.2888 | 0.000829
282.84 K, 1790.6 kPa, x1 = 0.1116 | 0.001036
283 K, 1988.8 kPa, x1 = 0.4162 | 0.000979
283 K, 2957.6 kPa, x1 = 0.6362 | 0.000591
283.02 K, 2213.7 kPa, x1 = 0.563 | 0.000868
292.93 K, 3143.3 kPa, x1 = 0.6362 | 0.000591
293.06 K, 1887.6 kPa, x1 = 0.1116 | 0.001036
293.07 K, 2332 kPa, x1 = 0.563 | 0.000868
293.08 K, 2094.2 kPa, x1 = 0.4162 | 0.00098
298.02 K, 3235.8 kPa, x1 = 0.6362 | 0.000591
298.05 K, 1934.6 kPa, x1 = 0.1116 | 0.001037
298.08 K, 2145.4 kPa, x1 = 0.4162 | 0.00098
298.09 K, 2390.3 kPa, x1 = 0.563 | 0.000868
298.1 K, 2367.2 kPa, x1 = 0.2888 | 0.00083
308.02 K, 2027.4 kPa, x1 = 0.1116 | 0.001037
308.05 K, 3416.1 kPa, x1 = 0.6362 | 0.000592
308.06 K, 2246.6 kPa, x1 = 0.4162 | 0.000981
308.08 K, 2486.6 kPa, x1 = 0.2888 | 0.00083
308.42 K, 2509 kPa, x1 = 0.563 | 0.000869
317.83 K, 2615.8 kPa, x1 = 0.563 | 0.000869
318.02 K, 2345.8 kPa, x1 = 0.4162 | 0.000981
318.02 K, 2603.8 kPa, x1 = 0.2888 | 0.000831
318.03 K, 3592.6 kPa, x1 = 0.6362 | 0.000592
318.11 K, 2119.5 kPa, x1 = 0.1116 | 0.001037
328.1 K, 2210.6 kPa, x1 = 0.1116 | 0.001038
328.1 K, 2731.1 kPa, x1 = 0.563 | 0.000869
328.11 K, 2445.5 kPa, x1 = 0.4162 | 0.000981
328.12 K, 3768.5 kPa, x1 = 0.6362 | 0.000592
328.13 K, 2721.6 kPa, x1 = 0.2888 | 0.000831
338.08 K, 2300.2 kPa, x1 = 0.1116 | 0.001038
338.08 K, 2543.3 kPa, x1 = 0.4162 | 0.000982
338.08 K, 2836.1 kPa, x1 = 0.2888 | 0.000831
338.09 K, 2842.1 kPa, x1 = 0.563 | 0.00087
338.09 K, 3939.9 kPa, x1 = 0.6362 | 0.000592
348.06 K, 2388.8 kPa, x1 = 0.1116 | 0.001039
348.06 K, 2949.9 kPa, x1 = 0.2888 | 0.000832
348.06 K, 2951.9 kPa, x1 = 0.563 | 0.00087
348.07 K, 2640.2 kPa, x1 = 0.4162 | 0.000982
348.07 K, 4110.3 kPa, x1 = 0.6362 | 0.000593
358.03 K, 2476.8 kPa, x1 = 0.1116 | 0.001039
358.03 K, 3062.3 kPa, x1 = 0.2888 | 0.000832
358.04 K, 2736.3 kPa, x1 = 0.4162 | 0.000983
358.05 K, 3061.1 kPa, x1 = 0.563 | 0.00087
358.05 K, 4278.2 kPa, x1 = 0.6362 | 0.000593

[N-]=[N+]=O [nitrous oxide] + FCF
Other PVT measurement
Conditions | molar volume [m3/mol]
283.32 K, 2978.6 kPa, x1 = 0.8042 | 0.000562
288.38 K, 3087.3 kPa, x1 = 0.8042 | 0.000562
293.46 K, 3188.3 kPa, x1 = 0.8042 | 0.000563
298.54 K, 2796 kPa, x1 = 0.5068 | 0.000644
298.6 K, 3286 kPa, x1 = 0.8042 | 0.000563
303.68 K, 2903.7 kPa, x1 = 0.5068 | 0.000644
303.68 K, 2988.3 kPa, x1 = 0.4207 | 0.000594
303.68 K, 3381.2 kPa, x1 = 0.8042 | 0.000563
308.76 K, 3475.8 kPa, x1 = 0.8042 | 0.000563
308.77 K, 2774.4 kPa, x1 = 0.2255 | 0.000631
308.77 K, 2991.7 kPa, x1 = 0.5068 | 0.000645
308.77 K, 3091.8 kPa, x1 = 0.4207 | 0.000594
313.85 K, 3190.6 kPa, x1 = 0.4207 | 0.000595
313.85 K, 3569.2 kPa, x1 = 0.8042 | 0.000563
313.86 K, 2875.7 kPa, x1 = 0.2255 | 0.000631
313.87 K, 3078.9 kPa, x1 = 0.5068 | 0.000645
318.94 K, 3288.2 kPa, x1 = 0.4207 | 0.000595
318.94 K, 3661.8 kPa, x1 = 0.8042 | 0.000563
318.95 K, 2971.2 kPa, x1 = 0.2255 | 0.000631
318.95 K, 3164.6 kPa, x1 = 0.5068 | 0.000645
324.03 K, 3384.5 kPa, x1 = 0.4207 | 0.000595
324.03 K, 3753.8 kPa, x1 = 0.8042 | 0.000563
324.04 K, 3064.8 kPa, x1 = 0.2255 | 0.000631
324.04 K, 3249.6 kPa, x1 = 0.5068 | 0.000645
329.13 K, 3157.2 kPa, x1 = 0.2255 | 0.000632
329.13 K, 3845.1 kPa, x1 = 0.8042 | 0.000563
329.14 K, 3334.1 kPa, x1 = 0.5068 | 0.000645
329.14 K, 3479.7 kPa, x1 = 0.4207 | 0.000595
334.22 K, 3248.1 kPa, x1 = 0.2255 | 0.000632
334.22 K, 3573.4 kPa, x1 = 0.4207 | 0.000595
334.23 K, 3417.4 kPa, x1 = 0.5068 | 0.000645
334.23 K, 3935.9 kPa, x1 = 0.8042 | 0.000564
339.33 K, 3338.3 kPa, x1 = 0.2255 | 0.000632
339.33 K, 3500 kPa, x1 = 0.5068 | 0.000645
339.34 K, 3666.5 kPa, x1 = 0.4207 | 0.000595
339.35 K, 4026.2 kPa, x1 = 0.8042 | 0.000564
344.43 K, 3581.9 kPa, x1 = 0.5068 | 0.000646
344.43 K, 3758.3 kPa, x1 = 0.4207 | 0.000595
344.43 K, 4115.4 kPa, x1 = 0.8042 | 0.000564
344.44 K, 3427.2 kPa, x1 = 0.2255 | 0.000632
353.6 K, 3922.3 kPa, x1 = 0.4207 | 0.000596
354.61 K, 3602.1 kPa, x1 = 0.2255 | 0.000632
354.62 K, 4293 kPa, x1 = 0.8042 | 0.000564
